Assays:
Parameters in all cases: dose 200 mg/kg, route oral
[1] = Metabolic stability in Sprague-Dawley rat assessed as urinary excretion of unchanged drug level at 200 mg/kg, po after 0 to 12 hrs by HPLC; type: ADME, organism-based; details: urine, read-out: Activity
Rattus norvegicus [2] = assay: Metabolic stability in Sprague-Dawley rat assessed as urinary excretion of trans-caffeic acid level at 200 mg/kg, po after 0 to 48 hrs by HPLC; type: ADME, organism-based, Urine; details: in vivo
Rattus norvegicus [3] = assay: Metabolic stability in Sprague-Dawley rat assessed as urinary excretion of trans-ferulic acid 4-O-sulfate level at 200 mg/kg, po after 0 to 48 hrs by HPLC; type: ADME, organism-based, Urine; details: in vivo
Rattus norvegicus [4] = assay: Metabolic stability in Sprague-Dawley rat assessed as urinary excretion of trans-m-coumaric acid level at 200 mg/kg, po after 0 to 36 hrs by HPLC; type: ADME, organism-based, Urine; details: in vivo
Rattus norvegicus [5] = assay: Metabolic stability in Sprague-Dawley rat assessed as urinary excretion of trans-caffeic acid 4-O-sulfate level at 200 mg/kg, po after 0 to 48 hrs by HPLC; type: ADME, organism-based, Urine; details: in vivo
[6] = Metabolic stability in Sprague-Dawley rat assessed as urinary excretion of unchanged drug level at 200 mg/kg, po after 0 to 36 hrs by HPLC; type: ADME, organism-based; details: urine, read-out: Activity
Rattus norvegicus [7] = assay: Metabolic stability in Sprague-Dawley rat assessed as urinary excretion of m-hydroxyphenyl-propionic acid level at 200 mg/kg, po after 0 to 12 hrs by HPLC; type: ADME, organism-based, Urine; details: in vivo
Rattus norvegicus [8] = assay: Metabolic stability in Sprague-Dawley rat assessed as urinary excretion of m-hydroxyphenyl-propionic acid level at 200 mg/kg, po after 0 to 24 hrs by HPLC; type: ADME, organism-based, Urine; details: in vivo
[9] = Metabolic stability in Sprague-Dawley rat assessed as urinary excretion of unchanged drug level at 200 mg/kg, po after 0 to 8 hrs by HPLC; type: ADME, organism-based; details: urine, read-out: Activity
Rattus norvegicus [10] = assay: Metabolic stability in Sprague-Dawley rat assessed as urinary excretion of trans-m-coumaric acid 3-O-sulfate level at 200 mg/kg, po after 0 to 36 hrs by HPLC; type: ADME, organism-based, Urine; details: in vivo
Rattus norvegicus [11] = assay: Metabolic stability in Sprague-Dawley rat assessed as urinary excretion of trans-m-coumaric acid 3-O-sulfate level at 200 mg/kg, po after 0 to 72 hrs by HPLC; type: ADME, organism-based, Urine; details: in vivo
Rattus norvegicus [12] = assay: Metabolic stability in Sprague-Dawley rat assessed as urinary excretion of m-hydroxyphenyl-propionic acid level at 200 mg/kg, po after 0 to 8 hrs by HPLC; type: ADME, organism-based, Urine; details: in vivo
Rattus norvegicus [13] = assay: Metabolic stability in Sprague-Dawley rat assessed as urinary excretion of trans-m-coumaric acid level at 200 mg/kg, po after 0 to 48 hrs by HPLC; type: ADME, organism-based, Urine; details: in vivo
Rattus norvegicus [14] = assay: Metabolic stability in Sprague-Dawley rat assessed as urinary excretion of trans-m-coumaric acid level at 200 mg/kg, po after 0 to 24 hrs by HPLC; type: ADME, organism-based, Urine; details: in vivo
Rattus norvegicus [15] = assay: Metabolic stability in Sprague-Dawley rat assessed as urinary excretion of trans-m-coumaric acid level at 200 mg/kg, po after 0 to 12 hrs by HPLC; type: ADME, organism-based, Urine; details: in vivo
Rattus norvegicus [16] = assay: Metabolic stability in Sprague-Dawley rat assessed as urinary excretion of trans-m-coumaric acid 3-O-sulfate level at 200 mg/kg, po after 0 to 12 hrs by HPLC; type: ADME, organism-based, Urine; details: in vivo
Rattus norvegicus [17] = assay: Metabolic stability in Sprague-Dawley rat assessed as urinary excretion of m-hydroxyphenyl-propionic acid level at 200 mg/kg, po after 0 to 36 hrs by HPLC; type: ADME, organism-based, Urine; details: in vivo
Rattus norvegicus [18] = assay: Metabolic stability in Sprague-Dawley rat assessed as urinary excretion of trans-caffeic acid level at 200 mg/kg, po after 0 to 12 hrs by HPLC; type: ADME, organism-based, Urine; details: in vivo
Rattus norvegicus [19] = assay: Metabolic stability in Sprague-Dawley rat assessed as urinary excretion of total metabolites at 200 mg/kg, po after 0 to 8 hrs by HPLC; type: ADME, organism-based, Urine; details: in vivo
Rattus norvegicus [20] = assay: Metabolic stability in Sprague-Dawley rat assessed as urinary excretion of trans-caffeic acid 4-O-sulfate level at 200 mg/kg, po after 0 to 72 hrs by HPLC; type: ADME, organism-based, Urine; details: in vivo
[21] = Metabolic stability in Sprague-Dawley rat assessed as urinary excretion of unchanged drug level at 200 mg/kg, po after 0 to 4 hrs by HPLC; type: ADME, organism-based; details: urine, read-out: Activity
Rattus norvegicus [22] = assay: Metabolic stability in Sprague-Dawley rat assessed as urinary excretion of m-hydroxyphenyl-propionic acid level at 200 mg/kg, po after 0 to 72 hrs by HPLC; type: ADME, organism-based, Urine; details: in vivo
Rattus norvegicus [23] = assay: Metabolic stability in Sprague-Dawley rat assessed as urinary excretion of trans-ferulic acid 4-O-sulfate level at 200 mg/kg, po after 0 to 72 hrs by HPLC; type: ADME, organism-based, Urine; details: in vivo
Rattus norvegicus [24] = assay: Metabolic stability in Sprague-Dawley rat assessed as urinary excretion of trans-caffeic acid level at 200 mg/kg, po after 0 to 8 hrs by HPLC; type: ADME, organism-based, Urine; details: in vivo
Rattus norvegicus [25] = assay: Metabolic stability in Sprague-Dawley rat assessed as urinary excretion of trans-caffeic acid level at 200 mg/kg, po after 0 to 72 hrs by HPLC; type: ADME, organism-based, Urine; details: in vivo
Rattus norvegicus [26] = assay: Metabolic stability in Sprague-Dawley rat assessed as urinary excretion of total metabolites at 200 mg/kg, po after 0 to 24 hrs by HPLC; type: ADME, organism-based, Urine; details: in vivo
Rattus norvegicus [27] = assay: Metabolic stability in Sprague-Dawley rat assessed as urinary excretion of trans-caffeic acid 4-O-sulfate level at 200 mg/kg, po after 0 to 8 hrs by HPLC; type: ADME, organism-based, Urine; details: in vivo
Rattus norvegicus [28] = assay: Metabolic stability in Sprague-Dawley rat assessed as urinary excretion of total metabolites at 200 mg/kg, po after 0 to 48 hrs by HPLC; type: ADME, organism-based, Urine; details: in vivo
Rattus norvegicus [29] = assay: Metabolic stability in Sprague-Dawley rat assessed as urinary excretion of total metabolites at 200 mg/kg, po after 0 to 36 hrs by HPLC; type: ADME, organism-based, Urine; details: in vivo
Rattus norvegicus [30] = assay: Metabolic stability in Sprague-Dawley rat assessed as urinary excretion of trans-m-coumaric acid level at 200 mg/kg, po after 0 to 72 hrs by HPLC; type: ADME, organism-based, Urine; details: in vivo
Rattus norvegicus [31] = assay: Metabolic stability in Sprague-Dawley rat assessed as urinary excretion of trans-m-coumaric acid level at 200 mg/kg, po after 0 to 8 hrs by HPLC; type: ADME, organism-based, Urine; details: in vivo
[32] = Metabolic stability in Sprague-Dawley rat assessed as urinary excretion of unchanged drug level at 200 mg/kg, po after 0 to 72 hrs by HPLC; type: ADME, organism-based; details: urine, read-out: Activity
Rattus norvegicus [33] = assay: Metabolic stability in Sprague-Dawley rat assessed as urinary excretion of trans-caffeic acid level at 200 mg/kg, po after 0 to 36 hrs by HPLC; type: ADME, organism-based, Urine; details: in vivo
Rattus norvegicus [34] = assay: Metabolic stability in Sprague-Dawley rat assessed as urinary excretion of total metabolites at 200 mg/kg, po after 0 to 4 hrs by HPLC; type: ADME, organism-based, Urine; details: in vivo
Rattus norvegicus [35] = assay: Metabolic stability in Sprague-Dawley rat assessed as urinary excretion of trans-caffeic acid 4-O-sulfate level at 200 mg/kg, po after 0 to 36 hrs by HPLC; type: ADME, organism-based, Urine; details: in vivo
Rattus norvegicus [36] = assay: Metabolic stability in Sprague-Dawley rat assessed as urinary excretion of total metabolites at 200 mg/kg, po after 0 to 72 hrs by HPLC; type: ADME, organism-based, Urine; details: in vivo
Rattus norvegicus [37] = assay: Metabolic stability in Sprague-Dawley rat assessed as urinary excretion of trans-caffeic acid 4-O-sulfate level at 200 mg/kg, po after 0 to 4 hrs by HPLC; type: ADME, organism-based, Urine; details: in vivo
Rattus norvegicus [38] = assay: Metabolic stability in Sprague-Dawley rat assessed as urinary excretion of trans-caffeic acid level at 200 mg/kg, po after 0 to 4 hrs by HPLC; type: ADME, organism-based, Urine; details: in vivo
[39] = Metabolic stability in Sprague-Dawley rat assessed as urinary excretion of unchanged drug level at 200 mg/kg, po after 0 to 48 hrs by HPLC; type: ADME, organism-based; details: urine, read-out: Activity
Rattus norvegicus [40] = assay: Metabolic stability in Sprague-Dawley rat assessed as urinary excretion of trans-m-coumaric acid 3-O-sulfate level at 200 mg/kg, po after 0 to 48 hrs by HPLC; type: ADME, organism-based, Urine; details: in vivo
Rattus norvegicus [41] = assay: Metabolic stability in Sprague-Dawley rat assessed as urinary excretion of trans-ferulic acid 4-O-sulfate level at 200 mg/kg, po after 0 to 36 hrs by HPLC; type: ADME, organism-based, Urine; details: in vivo
Rattus norvegicus [42] = assay: Metabolic stability in Sprague-Dawley rat assessed as urinary excretion of total metabolites at 200 mg/kg, po after 0 to 12 hrs by HPLC; type: ADME, organism-based, Urine; details: in vivo
Rattus norvegicus [43] = assay: Metabolic stability in Sprague-Dawley rat assessed as urinary excretion of trans-ferulic acid 4-O-sulfate level at 200 mg/kg, po after 0 to 4 hrs by HPLC; type: ADME, organism-based, Urine; details: in vivo
Rattus norvegicus [44] = assay: Metabolic stability in Sprague-Dawley rat assessed as urinary excretion of trans-caffeic acid 4-O-sulfate level at 200 mg/kg, po after 0 to 12 hrs by HPLC; type: ADME, organism-based, Urine; details: in vivo
Rattus norvegicus [45] = assay: Metabolic stability in Sprague-Dawley rat assessed as urinary excretion of trans-m-coumaric acid 3-O-sulfate level at 200 mg/kg, po after 0 to 24 hrs by HPLC; type: ADME, organism-based, Urine; details: in vivo
Rattus norvegicus [46] = assay: Metabolic stability in Sprague-Dawley rat assessed as urinary excretion of trans-caffeic acid 4-O-sulfate level at 200 mg/kg, po after 0 to 24 hrs by HPLC; type: ADME, organism-based, Urine; details: in vivo
Rattus norvegicus [47] = assay: Metabolic stability in Sprague-Dawley rat assessed as urinary excretion of trans-caffeic acid level at 200 mg/kg, po after 0 to 24 hrs by HPLC; type: ADME, organism-based, Urine; details: in vivo
Rattus norvegicus [48] = assay: Metabolic stability in Sprague-Dawley rat assessed as urinary excretion of trans-ferulic acid 4-O-sulfate level at 200 mg/kg, po after 0 to 24 hrs by HPLC; type: ADME, organism-based, Urine; details: in vivo
Rattus norvegicus [49] = assay: Metabolic stability in Sprague-Dawley rat assessed as urinary excretion of trans-ferulic acid 4-O-sulfate level at 200 mg/kg, po after 0 to 8 hrs by HPLC; type: ADME, organism-based, Urine; details: in vivo
[50] = Metabolic stability in Sprague-Dawley rat assessed as urinary excretion of unchanged drug level at 200 mg/kg, po after 0 to 24 hrs by HPLC; type: ADME, organism-based; details: urine, read-out: Activity
Rattus norvegicus [51] = assay: Metabolic stability in Sprague-Dawley rat assessed as urinary excretion of trans-ferulic acid 4-O-sulfate level at 200 mg/kg, po after 0 to 12 hrs by HPLC; type: ADME, organism-based, Urine; details: in vivo
Rattus norvegicus [52] = assay: Metabolic stability in Sprague-Dawley rat assessed as urinary excretion of m-hydroxyphenyl-propionic acid level at 200 mg/kg, po after 0 to 48 hrs by HPLC; type: ADME, organism-based, Urine; details: in vivo

## O=C(/C=C/c1ccc(O)c(O)c1)O[C@H](Cc1ccc(O)c(O)c1)C(=O)O [ROSMARINIC ACID]
[1]
  dose excreted: 0.077%
Rattus norvegicus [2]
  Activity: 0.117%
Rattus norvegicus [3]
  Activity: 0.581%
Rattus norvegicus [4]
  Activity: 0.399%
Rattus norvegicus [5]
  Activity: 0.154%
[6]
  dose excreted: 0.077%
Rattus norvegicus [7]
  Activity: 5.252%
Rattus norvegicus [8]
  Activity: 14.527%
[9]
  dose excreted: 0.077%
Rattus norvegicus [10]
  Activity: 11.778%
Rattus norvegicus [11]
  Activity: 12.137%
Rattus norvegicus [12]
  Activity: 0.949%
Rattus norvegicus [13]
  Activity: 0.413%
Rattus norvegicus [14]
  Activity: 0.333%
Rattus norvegicus [15]
  Activity: 0.1%
Rattus norvegicus [16]
  Activity: 0.174%
Rattus norvegicus [17]
  Activity: 17.43%
Rattus norvegicus [18]
  Activity: 0.037%
Rattus norvegicus [19]
  Activity: 1.476%
Rattus norvegicus [20]
  Activity: 0.154%
[21]
  dose excreted: 0.041%
Rattus norvegicus [22]
  Activity: 18.357%
Rattus norvegicus [23]
  Activity: 0.581%
Rattus norvegicus [24]
  Activity: 0.027%
Rattus norvegicus [25]
  Activity: 0.117%
Rattus norvegicus [26]
  Activity: 23.143%
Rattus norvegicus [27]
  Activity: 0.124%
Rattus norvegicus [28]
  Activity: 31.836%
Rattus norvegicus [29]
  Activity: 30.483%
Rattus norvegicus [30]
  Activity: 0.413%
Rattus norvegicus [31]
  Activity: 0.015%
[32]
  dose excreted: 0.077%
Rattus norvegicus [33]
  Activity: 0.086%
Rattus norvegicus [34]
  Activity: 0.17%
Rattus norvegicus [35]
  Activity: 0.154%
Rattus norvegicus [36]
  Activity: 31.836%
Rattus norvegicus [37]
  Activity: 0.038%
Rattus norvegicus [38]
  Activity: 0.01%
[39]
  dose excreted: 0.077%
Rattus norvegicus [40]
  Activity: 12.137%
Rattus norvegicus [41]
  Activity: 0.559%
Rattus norvegicus [42]
  Activity: 6.241%
Rattus norvegicus [43]
  Activity: 0.081%
Rattus norvegicus [44]
  Activity: 0.139%
Rattus norvegicus [45]
  Activity: 7.456%
Rattus norvegicus [46]
  Activity: 0.149%
Rattus norvegicus [47]
  Activity: 0.063%
Rattus norvegicus [48]
  Activity: 0.538%
Rattus norvegicus [49]
  Activity: 0.284%
[50]
  dose excreted: 0.077%
Rattus norvegicus [51]
  Activity: 0.462%
Rattus norvegicus [52]
  Activity: 18.357%
